Reference: patent publication US20260275395A1, “ENZYMATIC CONVERSION OF D-XYLOSE INTO D-RIBOSE AND D-RIBULOSE-5-PHOSPHATE” (priority 2022, published 2026)

How the values were obtained:
[1] = system: BpRpiB (D-ribose-5-phosphate isomerase); test: Effect of metal ions on the activity of BpRpiB; type: biochemical, Bacteroides plebeius; settings: pre-incubation 4° C. 20 minutes; control: no metal ions added
Method: (§1) To determine the optimal reaction conditions for BpRpiB, the optimal reaction temperature, pH, metal ion effects, and thermal stability were examined. […] The amount (mg) of BpRpiB that produces 1 μmol of D-ribulose per minute was defined as one unit.
(§2) First, in order to determine the optimal temperature conditions for BpRpiB, the reaction was performed under standard reaction conditions at various temperature conditions. […] In order to investigate the optimal pH for the activity of BpRpiB, the reaction was performed by changing the pH using various buffer solutions. […] [(d) of FIG. 5].

[2] = system: BpXylA (xylose isomerase); test: Substrate specificity of BpXylA; type: biochemical, Bacteroides plebeius; settings: substrate 2 mM, standard reaction conditions (50 mM sodium phosphate pH 7.0, 1 mM Mg^2+, 50° C., 10 minutes); based on the activity for D-xylose
Method: (§3) To investigate the optimal reaction conditions for BpXylA, the effects of optimal reaction temperature, pH, and metal ions were examined. The standard reaction conditions for BpXylA were set to a reaction with 1.09 U/ml BpXylA in 50 mM sodium phosphate (pH 7.0) buffer containing 10 mM D-xylose and 1 mM Mg^2+ at 50° C. for 10 minutes. The optimal reaction conditions for BpXylA described below were all determined by experiments under the standard reaction conditions.
In order to determine whether BpXylA used in the present invention is a suitable enzyme for producing D-ribose from D-xylose, the substrate specificity of BpXylA for various aldo- and keto-sugars was examined [Table 1]. The experiment was conducted using various aldo- and keto-sugars as substrates at a concentration of 2 mM under the standard reaction conditions, and the relative activity against other substrates was shown based on the activity for D-xylose. […] Therefore, BpXylA is sufficiently applicable for producing D-ribose from D-xylose in the present invention.

[3] = system: BpRpiB (D-ribose-5-phosphate isomerase); test: Substrate specificity of BpRpiB; type: biochemical, Bacteroides plebeius; settings: substrate 2 mM, standard reaction conditions (50° C., 10 minutes)
From the text: as §1
BpRpiB used in the present invention is known to be an enzyme that converts the substrate D-ribulose-5-phosphate, which is originally a phosphorylated sugar, into D-ribose-5-phosphate. Therefore, in the present invention, in order to confirm the activity of BpRpiB for D-ribose and D-ribulose as well as D-ribulose-5-phosphate and D-ribose-5-phosphate, which are the original substrates of BpRpiB, the substrate specificity of BpRpiB for various aldo- and keto-sugars was examined [Table 2]. The experiment was performed using various aldo- and keto-sugars as substrates at a concentration of 2 mM under standard reaction conditions, and the relative activity against other substrates was expressed based on the activity against D-xylose. […] Therefore, in the present invention, in order to produce D-ribose from D-xylose, BpRpiB is sufficiently applicable as an enzyme that converts D-ribulose into D-ribose, which is the final reaction step of the multi-enzyme process.

EcAraB (L-ribulokinase) [4] = target: T1, EcAraB (L-ribulokinase) (Escherichia coli, UniProt P08204); settings: previous study; cited from earlier work
[5] = system: BpXylA (xylose isomerase); test: Effect of metal ions on the activity of BpXylA; type: biochemical, Bacteroides plebeius; settings: pre-incubation 4° C. 20 minutes; control: no metal ions added
Method: as §3
(§4) First, in order to determine the optimal temperature conditions for BpXylA, the reaction was performed under standard reaction conditions at various temperature conditions. […] In order to determine the optimal pH of BpXylA, the reaction was performed while varying the pH using various buffer solutions.

[6] = system: BpXylA (xylose isomerase); test: Effect of metal ions on the thermal stability of BpXylA; type: biochemical, Bacteroides plebeius; settings: 1 mM metal ion; for Relative activity of BpXylA over time with metal ion: 50° C. (Mg^2+: 50° C. or higher), up to 90 minutes
Method: To investigate this, the culture was performed with each metal ion corresponding to a concentration of 1 mM together with the enzymes under various temperature conditions. As a result, as shown in [FIG. 4], higher thermal stability was found when the culture was performed with metal ions than when it was performed without metal ions. […] [(b) of FIG. 4 and (c) of FIG. 4].

[7] = target: EcPpk (polyphosphate kinase) (Escherichia coli, UniProt P0A7B1); settings: pre-incubation 4° C. 20 minutes; control: no metal ions added
Method: As a result, the highest activity was found at 50° C., as shown in [(a) of FIG. 10]. […] As a result, the highest activity was found in a sodium phosphate buffer (pH 7.0), as shown in [(b) of FIG. 10]. […] The decrease in enzyme activity was calculated by calculating the decrease in relative activity due to heat treatment, using the activity of the enzyme that was not allowed to stand as a control. […] [(d) of FIG. 10].

EcAraB (L-ribulokinase) [8] = target: T1, EcAraB (L-ribulokinase); test: Effect of metal ions on the activity of EcAraB; type: biochemical; set-up: His tag (inferred: pET21a, NotI reverse primer without stop codon, HisTrap purification) (C); T7 tag and vector leader of pET21a (own knowledge: in-frame insertion at SacI keeps the vector's N-terminal leader) (N); made in house; host or cells: E. coli BL21 (DE3); settings: pre-incubation 4° C. 20 minutes; control: no metal ions added
Method: To determine the optimal reaction conditions for EcAraB, the optimal reaction temperature, pH, metal ion effects, and thermal stability were examined. […] The amount (mg) of EcAraB that produces 1 μmol of D-ribulose-5-phosphate per minute was defined as one unit.
As a result, as shown in [(a) of FIG. 9], the highest activity was found at 50° C. In order to determine the optimal pH conditions for EcAraB, the reaction was performed while varying the pH using various buffer solutions. […] [(d) of FIG. 9].

[9] = system: BpXylA (xylose isomerase); test: Optimal reaction temperature and pH of BpXylA; type: biochemical, Bacteroides plebeius
Method: as §3, §4

[10] = system: BpXylA (xylose isomerase); test: Thermal stability of BpXylA; type: physicochemical, Bacteroides plebeius
[11] = target: T2, AtDpe (ketose 3-epimerase) (Agrobacterium fabrum, UniProt A9CH28); settings: 50° C. compared to 45° C.; previous study; cited from earlier work
T2 sequence (A9CH28 whole entry, looked up): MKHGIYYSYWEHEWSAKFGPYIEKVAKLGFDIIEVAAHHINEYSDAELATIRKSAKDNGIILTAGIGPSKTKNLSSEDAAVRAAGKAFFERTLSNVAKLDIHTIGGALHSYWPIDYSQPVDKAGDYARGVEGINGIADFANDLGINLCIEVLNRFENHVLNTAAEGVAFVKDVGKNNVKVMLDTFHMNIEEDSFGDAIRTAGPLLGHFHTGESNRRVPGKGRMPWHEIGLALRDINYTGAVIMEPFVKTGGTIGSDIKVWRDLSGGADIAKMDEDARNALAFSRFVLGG

[12] = system: BpRpiB (D-ribose-5-phosphate isomerase); test: Thermal stability of BpRpiB; type: physicochemical, Bacteroides plebeius
Method: as §1, §2

For `[Zn+2]` [Zn^2+], the “Effect of metal ion on enzyme activity” value [1] was “significantly inhibited”.

With `O=C(CO)[C@@H](O)[C@H](O)[C@H](O)CO` [D-Fructose] the “Relative activity (%)” value [2] was “Not detected” and the “Relative activity (%)” value [3] was “Not detected”.

For `O=C(CO)[C@@H](O)[C@H](O)CO` [D-Xylulose], the “Relative activity (%)” value [2] is given as 156.5 ± 2.2%, the “Relative activity (%)” value [3] is given as “Not detected” and the “Activity relative to the activity against D-ribulose” value (EcAraB (L-ribulokinase) [4]) is given as 2.44%.

In the case of `[Cu+2]` [Cu^2+], the “Effect of metal ion on enzyme activity” value [1] is reported as “significantly inhibited”.

In the case of `O=C(CO)[C@H](O)[C@H](O)CO` [D-Ribulose], the “Relative activity (%)” value [2] is reported as 13.9 ± 13.8% and the “Relative activity (%)” value [3] is reported as 100 ± 4.8%.

With `O=C[C@@H](O)[C@@H](O)[C@H](O)[C@H](O)CO` [D-Mannose] the “Relative activity (%)” value [2] was “Not detected” and the “Relative activity (%)” value [3] was “Not detected”.

With `O=C[C@H](O)[C@H](O)[C@H](O)CO` [D-Ribose] the “Relative activity (%)” value [2] was 33.2 ± 1.1% and the “Relative activity (%)” value [3] was 79.1 ± 0.4%.

With `O=C[C@H](O)[C@@H](O)[C@H](O)[C@H](O)CO` [D-Glucose] the “Relative activity (%)” value [2] was “Not detected” and the “Relative activity (%)” value [3] was “Not detected”.

For `O=C[C@H](O)[C@@H](O)[C@H](O)CO` [D-Xylose], the “Relative activity (%)” value [2] was 100 ± 2.2% and the “Relative activity (%)” value [3] was “Not detected”.

In the case of `[Co+2]` [Co^2+], the “Effect of metal ion on enzyme activity” value [5] is reported as “significantly increased”, the “Relative activity of BpXylA over time with metal ion” value [6] is reported as “stably maintained” and the “Relative activity with metal ion added” value [7] is reported as 176.14±24.10%. For the same molecule, the “Relative activity with metal ion added” value (EcAraB (L-ribulokinase) [8]) was 435.51±110.20%.

With `O=C[C@H](O)[C@@H](O)[C@@H](O)CO` [L-Arabinose] the “Relative activity (%)” value [2] was “Not detected” and the “Relative activity (%)” value [3] was “Not detected”.

With `O=C[C@H](O)[C@H](O)[C@H](O)COP(=O)(O)O` [D-Ribose-5-phosphate] the “Relative activity (%)” value [3] was 933.9 ± 11.7%.

In the case of `O=C(CO)[C@@H](O)[C@H](O)[C@@H](O)CO` [L-Sorbose], the “Relative activity (%)” value [2] is reported as “Not detected” and the “Relative activity (%)” value [3] is reported as “Not detected”.

With `O=C(CO)[C@H](O)[C@H](O)COP(=O)(O)O` [D-Ribulose-5-phosphate] the “Relative activity (%)” value [3] was 924.4 ± 33.7%.

With `O=C(CO)[C@@H](O)[C@@H](O)[C@H](O)CO` [D-Tagatose] the “Relative activity (%)” value [2] was “Not detected” and the “Relative activity (%)” value [3] was “Not detected”.

In the case of “BpXylA: xylose isomerase derived from Bacteroides plebeius, SEQ ID NO: 1”, the “Optimal pH” value ([9]; sodium phosphate buffer) is reported as 7.0, the “Optimal temperature for enzyme activity” value ([9]; standard reaction conditions, various temperatures) is reported as 50 °C and the “Enzyme activity after heat treatment” value ([10]; 40° C., up to 90 minutes) is reported as “did not significantly decrease”. For the same molecule, the “Relative activity after heat treatment” value ([10]; 50° C. for 15 minutes, control: enzyme not allowed to stand) was “about 29.29±1.43%”.

In the case of `[Mn+2]` [Mn^2+], the “Effect of metal ion on enzyme activity” value [5] is reported as “significantly increased”, the “Relative activity of BpXylA over time with metal ion” value [6] is reported as “stably maintained” and the “Relative activity of BpXylA with metal ion” value ([6]; 60° C.) is reported as “stable”. The “Relative activity with metal ion added” value [7] was 161.48±5.53% and the “Relative activity with metal ion added” value (EcAraB (L-ribulokinase) [8]) was 286.47±21.62%.

In the case of `O=C[C@@H](O)[C@H](O)[C@H](O)CO` [D-Arabinose], the “Relative activity (%)” value [2] is reported as “Not detected” and the “Relative activity (%)” value [3] is reported as “Not detected”.

In the case of `[Mg+2]` [Mg^2+], the “Effect of metal ion on enzyme activity” value [5] is reported as “significantly increased”, the “Relative activity with metal ion added” value [5] is reported as 876.98±35.30% and the “Relative activity of BpXylA over time with metal ion” value [6] is reported as “decreased over time”. The “Thermal stability of BpXylA with metal ion” value ([6]; versus without metal ions) was “thermal stability increased”, the “Relative activity with metal ion added” value [7] was 202.12±7.46% and the “Relative activity with metal ion added” value (EcAraB (L-ribulokinase) [8]) was 614.62±42.14%.

B1: AtDpe: ketose 3-epimerase derived from Agarobacterium tumefaciens, SEQ ID NO: 3 (protein)
chain: MKHGIYYSYWEHEWSAKFGPYIEKVAKLGFDIIEVAAHHINEYSDAELATIRKSAKDNGIILTAGIGPSKTKNLSSEDAAVRAAGKAFFERTLSNVAKLDIHTIGGALHSYWPIDYSQPVDKAGDYARGVEGINGIADFANDLGINLCIEVLNRFENHVLNTAAEGVAFVKDVGKNNVKVMLDTFHMNIEEDSFGDAIRTAGPLLGHFHTGESNRRVPGKGRMPWHEIGLALRDINYTGAVIMEPFVKTGGTIGSDIKVWRDLSGGADIAKMDEDARNALAFSRFVLGG
modifications: AtDpe
For B1, the Thermal stability [11] is given as “decreased rapidly”.

B2: BpRpiB: D-ribose-5-phosphate isomerase derived from Bacteroides plebeius, SEQ ID NO: 5 (protein)
chain: MKTIGLASDHAGFELKQYVKKWLEAKGWEYKDFGTYTTDSCDYPDFAHPLALAVENGECYPGIAICGSGEGIGITLNKHQGIRAALCWIPEIAHLARQHNNANVLVMPGRFIDEAMADKIMTEFFTTDFEGGRHQARIDKIPVR
modifications: BpRpiB
In the case of B2, the “Activity after heat treatment” value ([12]; 70° C.) is reported as “rapidly decreased” and the “Overall activity after heat treatment” value ([12]; up to 60° C.) is reported as “stable”.
